Key:
VEGF-like activity = test: Screen for VEGF-like activity in a standard assay; assay type: cell-based; settings: for VEGF-like activity: 2 microgram/ml compound
From the text: Compounds were screened for VEGF-like activity in a standard assay using 2 microgram/ml compound.

[1] = test system: MDCK cells exposed to adriamycin; test: Anti-apoptotic activity assay (MTT viability, adriamycin-induced apoptosis); assay type: cell-based
[2] = test system: Endothelial cells (HUVECs); test: Endothelial cell (HUVEC) proliferation assay, 3H thymidine incorporation, compound without added growth factor; assay type: cell-based, human
Method: Cell proliferation assays Endothelial cells (HUVECs) were seeded in 48 well plates at a density of 10,000 to 20,000 cells per well in the normal growth medium (EGM-2-Clonetics) containing 2% fetal bovine serum, FGF, VEGF, IGF, ascorbic acid, EGF, GA, heparin and hydrocortisone. The cells were grown normally in the growth medium for 24 hr at 37 degrees C. and 5% CO2. The cells were then rinsed with RPMI-1% BSA and starved for 1-2 hrs. The stock solutions of all the compounds were made at a concentration of 10 mg/ml in DMSO and diluted in RPMI-1% BSA at a final concentrations of 1 to 12 microgram/ml. The cells were then washed and treated with the compounds and incubated for another 24 hr at 37 degrees C. Then ^3H thymidine (0.5 microgram/ml in RPMI-BSA) was added to the cells and incubated at 37 degrees C. for 4 to 5 hours. The unincorporated thymidine was removed by washing the cells four times with 1× PBS. Then the cells were lysed with 0.5M NaOH for 30 min and the radioactivity counted in the beta counter. […]

[3] = test system: HGF/SF induced proliferation of HUVEC; test: Endothelial cell (HUVEC) proliferation assay in the presence of exogenously-added HGF/SF; assay type: cell-based, human; settings: with HGF/SF; for inhibition at 6 µg/mL: read-out: Activity at 6 microgram/ml With HGF/SF: inhibition (blocked SF); for Activity at 2 microgram/ml With HGF/SF (result in words) / inhibition at 2 µg/mL: 2 microgram/ml; for inhibition at 2 µg/mL: read-out: Activity at 2 microgram/ml With HGF/SF: inhibition (blocked SF)
From the text: To evaluate inhibitors of activity, compounds may be evaluated directly for anti-proliferative activities, such as the inhibition of cellular proliferation, inhibition of tumor growth, inhibition of scatter, and inhibition of gene expression, and may also be evaluated on their ability to inhibit activity when exposed to cells together with. In such instances, the scatter and/or proliferative activities induced by added will be inhibited by the attendant presence of an inhibitory compound of the invention.
Cell proliferation assays Endothelial cells (HUVECs) were seeded in 48 well plates at a density of 10,000 to 20,000 cells per well in the normal growth medium (EGM-2-Clonetics) containing 2% fetal bovine serum, FGF, VEGF, IGF, ascorbic acid, EGF, GA, heparin and hydrocortisone. The cells were grown normally in the growth medium for 24 hr at 37 degrees C. and 5% CO2. The cells were then rinsed with RPMI-1% BSA and starved for 1-2 hrs. The stock solutions of all the compounds were made at a concentration of 10 mg/ml in DMSO and diluted in RPMI-1% BSA at a final concentrations of 1 to 12 microgram/ml. The cells were then washed and treated with the compounds and incubated for another 24 hr at 37 degrees C. Then ^3H thymidine (0.5 microgram/ml in RPMI-BSA) was added to the cells and incubated at 37 degrees C. for 4 to 5 hours. The unincorporated thymidine was removed by washing the cells four times with 1× PBS. Then the cells were lysed with 0.5M NaOH for 30 min and the radioactivity counted in the beta counter.

DU145 cells = test: Clonogenic assay; assay type: cell-based; settings: clonogenic assay over 7 days
Method: The effect of (4-(2-chloro-6-fluorobenzyl)-3,5-dimethyl-1H-pyrazole-1-yl)(3-(2,6-dichlorophenyl)-5-methylisoxazol-4-yl)methanone (FIG. 7) and 1-(4-chloro-3-methylphenyl)-3-(2,6-dichlorophenyl)-prop-2-en-1-one were evaluated in a clonogenic assay over 7 days.

[4] = test system: growth of blood vessels from subcutaneous tissue into Matrigel; test: In vivo blood vessel ingrowth assay (Matrigel); settings: mice, Matrigel mixed with compound injected subcutaneously, 10 days
Method: Angiogenesis was assayed as growth of blood vessels from subcutaneous tissue into a solid gel of basement membrane containing the test compound. Matrigel in liquid form (0.5 ml) was mixed with a compound of the invention, or basic fibroblast growth factor as a control, and injected into the abdominal subcutaneous tissue of mice as previously described (Kibbey, M. C., Grant, D. S. Auerbach, R. and Kleinman, H. K. [1992] Role of the SIKVAV site of laminin in promotion of angiogenesis and tumor growth: an in vivo Matrigel model. J. Natl. Can. Inst. 84, 1633-38). After 10 days, mice were sacrificed and the Matrigel plugs were removed, fixed, sectioned, stained and examined for ingrowth of blood vessels.

[5] = Homo sapiens, 6 microgram/ml, inhibition of HUVEC proliferation
[6] = Homo sapiens, inhibition of HUVEC proliferation
[7] = 6-12 micrograms/ml, without HGF/SF, stimulation of endothelial cell proliferation

## CN(C)c1nc(-c2ccccc2)nc(-c2ccc(Cl)cc2)c1C#N [VC14, 4-(4-chlorophenyl)-6-(dimethylamino)-2-phenyl-5-pyrimidinecarbonitrile]
VEGF-like activity
  VEGF-like activity: positive activity

## HGF/SF: hepatocyte growth factor/scatter factor, pleiotropic growth factor; evaluated as a positive control
[1]; MDCK cells
  protection from adriamycin-induced apoptosis: 94%
[1]; without adriamycin
  cell viability, substance alone: unchanged
[2]
  effect on HUVEC proliferation, substance alone (FIG. 5): increases the proliferation of HUVEC

## COc1cccc2c1C(=O)c1c(O)c3c(c(O)c1C2=O)C[C@@](O)(C(=O)CO)C[C@@H]3O[C@H]1C[C@H](N)[C@H](O)[C@H](C)O1 [Adriamycin, reference compound]
[1]; Adriamycin (15 µM)
  cell viability: 56 % of control

## VEGF
VEGF-like activity
  activity of VEGF in the VEGF-like activity assay: 1259±104 cpm

## O=C1c2ccccc2N(c2ccccc2)C(=O)C1(Br)Br [VC8, 3,3-dibromo-1-phenyl-1,2,3,4-tetrahydroquinoline-2,4-dione]
VEGF-like activity
  VEGF-like activity: positive activity

## Cc1cc(C)cc(Sc2ccc3nnc(-c4ccccc4)n3n2)c1 [6-(3,5-Dimethylphenyl) Thio)-3-Phenyl (1,2,4-Triazolo(4,3-b)pyridazine]
[3]; Homo sapiens, HUVEC, 1 ug/ml, inhibition of endothelial cell proliferation, read-out: Activity at 1 ug/ml concentration With HGF/SF: inhibition
  inhibition at 1 µg/mL: 30%
[2]; 1 ug/ml, without HGF/SF
  Activity at 1 ug/ml concentration Without HGF/SF (result in words): no significant effect

## CCOC(CC(=O)NNC(=O)c1c(-c2c(Cl)cccc2Cl)noc1C)OCC [N′4-(3,3-diethoxypropanoyl)-3-(2,6-dichlorophenyl)-5-methylisoxazole-4-carbohydrazide]
[3]
  Activity at 2 microgram/ml With HGF/SF (result in words): No effect
[3]; [5]
  inhibition at 6 µg/mL: 35%
[2]; 2 microgram/ml, without HGF/SF
  Activity at 2 microgram/ml Without HGF/SF (result in words): No effect
[2]; 6 microgram/ml, without HGF/SF
  Activity at 6 microgram/ml Without HGF/SF (result in words): No effect

## Cc1nn(C(=O)c2c(Cl)cccc2Cl)c(C)c1Cc1c(F)cccc1Cl [(4-(2-chloro-6-fluorobenzyl)-3,5-dimethyl-1H-pyrazole-1-yl)(2,6-dichlorophenyl)methanone]
[3]; [6]
  inhibition at 2 µg/mL: 23%
[3]; [5]
  inhibition at 6 µg/mL: 90%
[2]; 2 microgram/ml, without HGF/SF
  Activity at 2 microgram/ml Without HGF/SF (result in words): not significant
[2]; 6 microgram/ml, without HGF/SF
  Activity at 6 microgram/ml Without HGF/SF (result in words): not significant

## Cc1onc(-c2c(Cl)cccc2Cl)c1C(=O)NNc1c(Cl)cc(Cl)cc1Cl [N′4-(2,4,6-trichlorophenyl)-3-3(2,6-dichlorophenyl)-5-methylisoxazole-4-carbohydrazide]
[3]
  Activity at 2 microgram/ml With HGF/SF (result in words): No effect
[3]; 6 microgram/ml, inhibition of HUVEC proliferation
  Activity at 6 microgram/ml With HGF/SF: inhibition (blocked SF): 60%
[2]; 2 microgram/ml, without HGF/SF
  Activity at 2 microgram/ml Without HGF/SF (result in words): No effect
[2]; 6 microgram/ml, without HGF/SF
  Activity at 6 microgram/ml Without HGF/SF (result in words): No effect

## Cc1nn(C(=O)c2cccs2)c(C)c1Cc1c(F)cccc1Cl [(4-(2-chloro-6-fluorobenzyl)-3,5-dimethyl-1H-pyrazole-1-yl)(2-thienyl)methanone]
[3]
  Activity at 2 microgram/ml With HGF/SF (result in words): No effect
[3]; [5]
  inhibition at 6 µg/mL: 61%
[2]; 2 microgram/ml, without HGF/SF
  Activity at 2 microgram/ml Without HGF/SF (result in words): No effect
[2]; 6 microgram/ml, without HGF/SF
  Activity at 6 microgram/ml Without HGF/SF (result in words): No effect

## C1=C(c2ccccc2)c2ccccc2C1(c1ccccc1)c1ccccc1 [1,1,3-triphenylinedene]
[3]; 6-12 micrograms/ml, stimulation of endothelial cell proliferation
  Stimulation at 6-12 micrograms/ml With: 30-40% stimulation
[2]; [7]
  Stimulation at 6-12 micrograms/ml Without HGF/SF: 50-100% stimulation

## Cc1nn(C(=O)c2c(-c3c(Cl)cccc3Cl)noc2C)c(C)c1Cc1c(F)cccc1Cl [(4-(2-chloro-6-fluorobenzyl)-3,5-dimethyl-1H-pyrazole-1-yl)(3-(2,6-dichlorophenyl)-5-methylisoxazol-4-yl)methanone]
DU145 cells
  DU145 cell growth: dose responsive inhibition
[4]
  ingrowth of blood vessels into Matrigel plug: significant stimulation of blood vessel ingrowth
[3]; [6]
  inhibition at 2 µg/mL: 40 to 90%
[3]; [5]
  inhibition at 6 µg/mL: 50 to 100%
[2]; 2 microgram/ml, without HGF/SF
  Activity at 2 microgram/ml Without HGF/SF (result in words): No effect

## Cc1nn(C(=O)C(C)(C)C)c(C)c1Cc1c(F)cccc1Cl [1-(4-(2-chloro-6-fluorobenzyl)-3,5-dimethyl-1H-pyrazole-1-yl)2,2-dimethylpropan-1-one]
[3]; [6]
  inhibition at 2 µg/mL: 25%
[3]; [5]
  inhibition at 6 µg/mL: 25%
[2]; 2 microgram/ml, without HGF/SF
  Activity at 2 microgram/ml Without HGF/SF (result in words): No effect
[2]; 6 microgram/ml, without HGF/SF
  Activity at 6 microgram/ml Without HGF/SF (result in words): No effect

## Cc1ccc(N=Cc2ccco2)c(C)c1 [N-(furfurylidene)-2,4-xylidine]
[3]; 6-12 micrograms/ml, inhibition of endothelial cell proliferation
  Inhibition at 6-12 micrograms/ml With: 50-60% inhibition
[2]; 6-12 micrograms/ml, without HGF/SF, inhibition of endothelial cell proliferation
  Inhibition at 6-12 micrograms/ml Without HGF/SF: 30-40% inhibition

## C(=C1CCCc2c(-c3ccccc3)cc(-c3ccccc3)pc21)c1ccccc1 (centres unmarked) [8-Benzyledene-2,4 Diphenyl-5,6,7,8 Tetrahydrophosphinoline]
[3]; 1 ug/ml, inhibition of endothelial cell proliferation
  Activity at 1 ug/ml concentration With HGF/SF: inhibition: 40% inhibition
[2]; 1 ug/ml, without HGF/SF
  Activity at 1 ug/ml concentration Without HGF/SF (result in words): no significant effect

## Cc1onc(-c2c(Cl)cccc2Cl)c1C(=O)NNc1c(Cl)cccc1Cl [N′4,3-di(2,6-dichlorophenyl)-5-methylisoxazole-4-carbohydrazide]
[3]
  Activity at 2 microgram/ml With HGF/SF (result in words): not significant
[3]; [5]
  inhibition at 6 µg/mL: 60%
[2]; 2 microgram/ml, without HGF/SF
  Activity at 2 microgram/ml Without HGF/SF (result in words): No effect
[2]; Homo sapiens, 6 microgram/ml, without HGF/SF, inhibition of HUVEC proliferation
  inhibition at 6 µg/mL: 30%

## COc1cc(CCC(=O)NNC(=O)c2c(-c3c(Cl)cccc3Cl)noc2C)cc(OC)c1OC [N′4-(3-(3,4,5-trimethoxyphenyl)propanoyl)-3-(2,6-dichlorophenyl)-5-methylisoxazole-4-carbohydrazide]
[3]; [6]
  inhibition at 2 µg/mL: 50%
[2]; 6 microgram/ml, without HGF/SF
  Activity at 6 microgram/ml Without HGF/SF (result in words): Cytotoxic
[2]; Homo sapiens, 2 microgram/ml, without HGF/SF, inhibition of HUVEC proliferation
  inhibition at 2 µg/mL: 50%

## Cc1n[nH]c(C)c1Cc1c(F)cccc1Cl [4-(2-chloro-6-fluorobenzyl)-3,5-dimethyl-1H-pyrazole]
[3]
  Activity at 2 microgram/ml With HGF/SF (result in words): No effect
[3]; 6 microgram/ml
  Activity at 6 microgram/ml With HGF/SF (result in words): No effect
[2]; 2 microgram/ml, without HGF/SF, stimulation of HUVEC proliferation
  Activity at 2 microgram/ml Without HGF/SF: stimulation: 54%
[2]; 6 microgram/ml, without HGF/SF
  Activity at 6 microgram/ml Without HGF/SF (result in words): No effect

## C[Si](C)(C)c1cccc(-c2ccccc2)c1 [(3-Biphenyl) Trimethyl silane]
[3]; 6-12 micrograms/ml
  Stimulation/Inhibition at 6-12 micrograms/ml With (result in words): No effect
[2]; [7]
  Stimulation at 6-12 micrograms/ml Without HGF/SF: 40% stimulation

## O=C(C=Cc1ccc(Br)cc1)c1ccccc1 [3-(4-Bromophenyl)-1-phenylprop-2-en-1-one]
[3]; 6-12 micrograms/ml
  Stimulation/Inhibition at 6-12 micrograms/ml With (result in words): some additive effect
[2]; 1 ug/ml, without HGF/SF, stimulation of endothelial cell proliferation
  Stimulation at 1 ug/ml Without HGF/SF: 40-80% stimulation at 1

## Cc1onc(-c2c(Cl)cccc2Cl)c1C(=O)NNc1ccccc1 [N′4-phenyl-3-(2,6-dichlorophenyl)-5-methylisoxazole-4-carbohydrazide]
[3]; [6]
  inhibition at 2 µg/mL: 40%
[3]; [5]
  inhibition at 6 µg/mL: 80%
[2]; 2 microgram/ml, without HGF/SF
  Activity at 2 microgram/ml Without HGF/SF (result in words): No effect
[2]; 6 microgram/ml, without HGF/SF
  Activity at 6 microgram/ml Without HGF/SF (result in words): No effect

Reference: patent publication US6855728B2, “Small-molecule modulators of hepatocyte growth factor / scatter factor activities” (North Shore-Long Island Jewish Health System, priority 2001, dated 2005)
